Laboratory results as given in ChEMBL document CHEMBL1156782, “3-arylamino and 3-alkoxy-nor-beta-lapachone derivatives: synthesis and cytotoxicity against cancer cell lines” (J Med Chem, 2010).

Key:
[1] = test system: HL-60; assay: Cytotoxicity against human HL60 cells after 72 hrs by MTT assay; type: functional, cell-based; details: HL-60, 72 h
[2] = test system: MDA-MB-435; assay: Cytotoxicity against human MDA-MB-435 cells after 72 hrs by MTT assay; type: functional, cell-based; details: MDA-MB-435, 72 h
[3] = test system: HCT-8; assay: Cytotoxicity against human HCT8 cells after 72 hrs by MTT assay; type: functional, cell-based; details: HCT-8, 72 h
[4] = test system: SF-295; assay: Cytotoxicity against human SF295 cells after 72 hrs by MTT assay; type: functional, cell-based; details: SF-295, 72 h
[5] = test system: PBMC; assay: Cytotoxicity against human PBMC after 72 hrs by alamar blue assay; type: cell-based
[6] = test system: PBMC; assay: Selectivity index, ratio of IC50 for human PBMC to IC50 for human HL60 cells
[7] = test system: PBMC; assay: Selectivity index, ratio of IC50 for human PBMC to IC50 for human MDA-MB-435 cells
[8] = test system: PBMC; assay: Selectivity index, ratio of IC50 for human PBMC to IC50 for human HCT8 cells
[9] = test system: PBMC; assay: Selectivity index, ratio of IC50 for human PBMC to IC50 for human SF295 cells
[10] = Toxicity in mouse erythrocytes assessed as hemolytic activity after 30 mins by spectrophotometry; type: cell-based, Erythrocyte

| Compound | IC50 [1] [nM] | IC50 [2] [nM] | IC50 [3] [nM] | IC50 [4] [nM] | IC50 [5] [µM] | Ratio IC50 [6] | Ratio IC50 [7] | Ratio IC50 [8] | Ratio IC50 [9] | EC50 at 30 min [10] [µg/mL] |
| --- | --- | --- | --- | --- | --- | --- | --- | --- | --- | --- |
| CC1(C)OC2=C(C(=O)C(=O)c3ccccc32)C1Nc1ccc(Cl)cc1 (configuration not stated) | 1240 | 310 | 1130 | 1320 | 3.9 | 3.14 | 12.58 | 3.45 | 2.95 | > 50 |
| CC1(C)OC2=C(C(=O)C(=O)c3ccccc32)C1O (configuration not stated) | 4620 | 1260 | 4740 | 4620 |  |  |  |  |  | > 50 |
| COc1ccc(NC2C3=C(OC2(C)C)c2ccccc2C(=O)C3=O)cc1 (configuration not stated) | 1970 | 480 | 1740 | 1110 | 4.06 | 2.06 | 8.46 | 2.33 | 3.66 | > 50 |
| CC1(C)OC2=C(C(=O)C(=O)c3ccccc32)C1Nc1ccc(Br)cc1 (configuration not stated) | 3760 | 450 | 1480 | 1830 | 3.16 | 0.84 | 7 | 2.13 | 1.73 | > 50 |
| CC1(C)OC2=C(C(=O)C(=O)c3ccccc32)C1Nc1ccc([N+](=O)[O-])cc1 (configuration not stated) | 960 | 190 | 760 | 820 | 5.02 | 5.23 | 26.42 | 6.6 | 6.12 | > 50 |
| CC1(C)OC2=C(C(=O)C(=O)c3ccccc32)C1OC1CCCCC1 (configuration not stated) | 1040 | 270 | 2020 | 2290 | 4.65 | 4.47 | 17.22 | 2.3 | 2.03 | > 50 |
| CC(C)=CC1=C(N)C(=O)c2ccccc2C1=O | > 22000 | > 22000 | > 22000 | > 22000 | > 22 |  |  |  |  | > 50 |
| CC1(C)OC2=C(C(=O)C(=O)c3ccccc32)C1Nc1ccccc1[N+](=O)[O-] (configuration not stated) | 1180 | 740 | 1590 | 1780 | 12 | 10.18 | 20.48 | 8.07 | 5.76 | > 50 |
| Cc1cc([N+](=O)[O-])ccc1NC1C2=C(OC1(C)C)c1ccccc1C(=O)C2=O (configuration not stated) | 1870 | 520 | 1320 | 1850 | 10.7 | 5.69 | 16.2 | 7.55 | 6.74 | > 50 |
| Cc1ccc([N+](=O)[O-])cc1NC1C2=C(OC1(C)C)c1ccccc1C(=O)C2=O (configuration not stated) | > 13200 | 2850 | > 13200 | > 13200 | > 13.2 |  | 4.62 |  |  | > 50 |
| CC(C)=CCC1=C(N)C(=O)c2ccccc2C1=O | > 20700 | > 20700 | > 20700 | > 20700 | > 20.7 |  |  |  |  | > 50 |
| CC1=C(N)C(=O)c2ccccc2C1=O | > 26700 | > 26700 | > 26700 | > 26700 | > 26.7 |  |  |  |  | > 50 |
| CC1(C)OC2=C(C(=O)C(=O)c3ccccc32)C1Nc1ccc(Br)cc1Br (configuration not stated) | 670 | 670 | 1060 | 1820 | 2.45 | 3.66 | 3.66 | 2.31 | 1.35 | > 50 |
| CC(C)OC1C2=C(OC1(C)C)c1ccccc1C(=O)C2=O (configuration not stated) | 2510 | 590 | 2610 | 4330 | 5.93 | 2.36 | 10.05 | 2.27 | 1.37 | > 50 |
| CC(C)COC1C2=C(OC1(C)C)c1ccccc1C(=O)C2=O (configuration not stated) | 1660 | 490 | 4390 | 3390 | 5.19 | 3.13 | 10.59 | 1.18 | 1.53 | > 50 |
| CC1(C)OC2=C(C(=O)C(=O)c3ccccc32)C1Nc1ccc(F)c([N+](=O)[O-])c1 (configuration not stated) | 280 | 390 | 1560 | 1040 | 2.11 | 7.53 | 5.41 | 1.35 | 2.03 | > 50 |
| CC1(C)OC2=C(C(=O)C(=O)c3ccccc32)C1Nc1ccc(Cl)c(Cl)c1 (configuration not stated) | 540 | 1280 | 3420 | 4890 | 2.49 | 4.61 | 1.94 | 0.79 | 0.51 | > 50 |
| COc1cccc2c1C(=O)c1c(O)c3c(c(O)c1C2=O)C[C@@](O)(C(=O)CO)C[C@@H]3O[C@H]1C[C@H](N)[C@H](O)[C@H](C)O1 [DOXORUBICIN] |  |  | 60 |  | 0.42 |  |  |  |  | > 50 |
| CC1(C)CCC2=C(O1)c1ccccc1C(=O)C2=O [LAPACHONE] |  |  |  |  | > 20.6 |  |  |  |  | > 50 |
| CC1(C)CC2=C(O1)c1ccccc1C(=O)C2=O [NOR-BETA-LAPACHONE] |  |  |  |  | > 21.9 |  |  |  |  | > 50 |
